The values that follow come from patent publication US8426447B2, “Spiro-tricyclic ring compounds as beta-secretase modulators and methods of use” (Amgen Inc., priority 2008, dated 2013).

Molecules are shown by their SMILES.

For one assay, the target named is BACE1 (Homo sapiens, UniProt P56817). The assay can be described thus: In Vitro Enzymatic BACE FRET (Fluorescence Resonance Energy Transfer) Assay. Type of assay: biochemical. To be noted: Table 1; read-out: BACE1 FRET assay. As for the experimental part: In Vitro Enzymatic BACE FRET (Fluorescence Resonance Energy Transfer) Assay (Enzyme Assay Data in the Example Tables I, II, III & IV) The assay buffer used in this screen is 0.05 M acetate, pH 4.2, 10% DMSO final, 100 uM genapol (which is a nonionic detergent, below its Critical Micelle Concentration). […] This assay is effectively started by the addition of FRET substrate (50 nM) and the combination is incubated for one hour. The FRET assay is terminated with by addition of Tris buffer, which raises the pH to neutrality, and the fluorescence is determined. The FRET substrate is a peptide with commercially available fluorophore and quencher, on opposite sides of the BACE cleavage site. […]
BACE1, sequence (P56817 46-501, species assumed): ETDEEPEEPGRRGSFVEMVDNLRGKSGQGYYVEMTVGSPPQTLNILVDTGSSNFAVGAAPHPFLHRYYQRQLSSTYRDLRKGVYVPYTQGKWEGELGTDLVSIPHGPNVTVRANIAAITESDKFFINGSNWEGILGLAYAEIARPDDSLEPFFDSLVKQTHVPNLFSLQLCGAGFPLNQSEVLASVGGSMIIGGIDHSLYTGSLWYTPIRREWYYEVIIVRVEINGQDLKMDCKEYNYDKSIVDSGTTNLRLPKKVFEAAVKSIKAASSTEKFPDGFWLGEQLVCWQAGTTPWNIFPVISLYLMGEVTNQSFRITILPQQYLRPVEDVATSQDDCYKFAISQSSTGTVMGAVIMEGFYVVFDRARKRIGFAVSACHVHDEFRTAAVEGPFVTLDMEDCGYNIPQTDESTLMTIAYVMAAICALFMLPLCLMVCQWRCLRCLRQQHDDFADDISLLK
`NC1=NC2(CO1)c1cc(Cl)ccc1Oc1ccc(-c3cncnc3)cc12` (stereo not drawn) [Example 13, 2′-chloro-7′-(5-pyrimidinyl)spiro[1,3-oxazole-4,9′-xanthen]-2-amine]: the IC50 fell in the range of 100 to 1000 nM.
On the same count and under the same terms, in the case of `COc1ccc2c(c1)[C@@]1(COC(N)=N1)c1cc(-c3cncnc3)ccc1O2` [Example 31, (4R)-2′-methoxy-7′-(5-pyrimidinyl)spiro[1,3-oxazole-4,9′-xanthen]-2-amine] it was greater than 5000 nM; in that of `Cc1ccc2c(c1)Oc1ccc(-c3ccccc3C)cc1C21COC(N)=N1` (stereo not drawn) [Example 34, 6′-methyl-2′-(2-methylphenyl)spiro[1,3-oxazole-4,9′-xanthen]-2-amine], greater than 5000 nM.
Still for that read-out and setting: in the case of `Cc1ccc2c(c1)Oc1ccc(-c3ccc(OC(F)(F)F)cc3)cc1C21COC(N)=N1` (stereo not drawn) [Example 36, 6′-methyl-2′-(4-(trifluoromethoxy)phenyl)spiro[1,3-oxazole-4,9′-xanthen]-2-amine] it was greater than 5000 nM.
For `Cc1cccc(-c2ccc3c(c2)C2(COC(N)=N2)c2ccc(C)cc2O3)c1` (stereo not drawn) [Example 33, 6′-methyl-2′-(3-methylphenyl)spiro[1,3-oxazole-4,9′-xanthen]-2-amine], the IC50 is greater than 5000 nM.

Staying with this assay, now noted: Table II; read-out: BACE1 FRET assay.
In the case of `NC1=N[C@]2(CO1)c1cc(C#CC3CC3)ccc1Oc1ccc(-c3cncnc3)cc12` [Example 101, (4R)-2′-(cyclopropylethynyl)-7′-(5-pyrimidinyl)spiro[1,3-oxazole-4,9′-xanthen]-2-amine], the IC50 was less than 100 nM.
In the case of `NC1=N[C@@]2(CO1)c1cc(C#CC3CC3)ccc1Oc1ccc(OCC3CCCO3)cc12` (stereo partly drawn) [Example 103, (4S)-2′-(cyclopropylethynyl)-7′-(tetrahydro-2-furanylmethoxy)spiro[1,3-oxazole-4,9′-xanthen]-2-amine], the IC50 is less than 100 nM.
Same read-out and setting: the figure for `NC1=N[C@]2(CO1)c1cc(OC[C@H]3CCCO3)ccc1Oc1ccc(-c3cncnc3)cc12` [Example 106, (4S)-2′-(5-pyrimidinyl)-7′-((2R)-tetrahydro-2-furanylmethoxy)spiro[1,3-oxazole-4,9′-xanthen]-2-amine] is less than 100 nM; for `NC1=N[C@]2(CO1)c1cc(OC[C@H]3CC3(F)F)ccc1Oc1ccc(-c3cncnc3)cc12` [Example 98, (4S)-2′-(((1R)-2,2-difluorocyclopropyl)methoxy)-7′-(5-pyrimidinyl)spiro[1,3-oxazole-4,9′-xanthen]-2-amine] it is less than 100 nM; for `NC1=N[C@]2(CO1)c1cc(C#CC3CCCC3)ccc1Oc1ccc(-c3cncnc3)cc12` [Example 95, (4R)-2′-(cyclopentylethynyl)-7′-(5-pyrimidinyl)spiro[1,3-oxazole-4,9′-xanthen]-2-amine] it is less than 100 nM.
Still for that read-out and setting: the figure for `CC(C)(C)C[C@H](O)c1ccc2c(c1)[C@]1(COC(N)=N1)c1cc(-c3cncnc3)ccc1O2` [Example 49, (1S)-1-((4S)-2-amino-7′-(5-pyrimidinyl)spiro[1,3-oxazole-4,9′-xanthen]-2′-yl)-3,3-dimethyl-1-butanol] is less than 100 nM; for `NC1=N[C@]2(CO1)c1cc(OCC3CCCCO3)ccc1Oc1ccc(-c3cncnc3)cc12` (stereo partly drawn) [Example 107, (4S)-2′-(5-pyrimidinyl)-7′-(tetrahydro-2H-pyran-2-ylmethoxy)spiro[1,3-oxazole-4,9′-xanthen]-2-amine] it is less than 100 nM.
Same read-out and setting: in the case of `NC1=N[C@]2(CO1)c1cc(OC[C@@H]3CCCO3)ccc1Oc1ccc(-c3cncnc3)cc12` [Example 105, (4S)-2′-(5-pyrimidinyl)-7′-((2S)-tetrahydro-2-furanylmethoxy)spiro[1,3-oxazole-4,9′-xanthen]-2-amine] it was less than 100 nM; in that of `NC1=N[C@]2(CO1)c1cc(C(=O)CC3CCCC3)ccc1Oc1ccc(-c3cncnc3)cc12` [Example 102, 1-((4S)-2-amino-7′-(5-pyrimidinyl)spiro[1,3-oxazole-4,9′-xanthen]-2′-yl)-2-cyclopentylethanone], less than 100 nM.
For `NC1=N[C@]2(CO1)c1cc(OCC3CCCO3)ccc1Oc1ccc(-c3cccnc3)cc12` (stereo partly drawn) [Example 99, (4S)-2′-(3-pyridinyl)-7′-(tetrahydro-2-furanylmethoxy)spiro[1,3-oxazole-4,9′-xanthen]-2-amine], the IC50 was less than 100 nM.
On the same count and under the same terms, the figure for `NC1=N[C@]2(CO1)c1cc(OC[C@@H]3CC3(F)F)ccc1Oc1ccc(-c3cncnc3)cc12` [Example 97, (4S)-2′-(((1S)-2,2-difluorocyclopropyl)methoxy)-7′-(5-pyrimidinyl)spiro[1,3-oxazole-4,9′-xanthen]-2-amine] is less than 100 nM.

The same assay, now with this note: in vitro BACE FRET enzyme assay, IC50 class symbols; read-out: BACE1 FRET assay.
Take `Cc1cc(-c2cc3c(cn2)Oc2ccc(-c4ccc(F)nc4)cc2[C@@]32COC(N)=N2)ccn1` [compound 313]: the IC50 was less than 100 nM.
As to `Cn1cc(-c2cnc3c(c2)[C@]2(COC(N)=N2)c2cc(-c4cccnc4F)ccc2O3)cn1` [compound 346], the IC50 was less than 100 nM.
Regarding `CC(C)(C#N)COc1ccc2c(c1)[C@@]1(COC(N)=N1)c1cc(-c3ccc(C#N)cc3)cnc1O2` [compound 340], the IC50 is less than 100 nM.
Take `Cc1cncc(-c2ccc3c(c2)[C@@]2(COC(N)=N2)c2cc(-c4ccncc4)ncc2O3)c1` [compound 305]: the IC50 was less than 100 nM.
Still for that read-out and setting: in the case of `CC(C)(C)C#Cc1cnc2c(c1)[C@]1(COC(N)=N1)c1cc(OCC(C)(C)C#N)ccc1O2` [compound 319] it was less than 100 nM; in that of `CC1(C)CCN(c2cnc3c(c2)[C@]2(COC(N)=N2)c2cc(-c4cccnc4F)ccc2O3)C1` [compound 316], less than 100 nM; in that of `NC1=N[C@@]2(CO1)c1cc(-c3cncc(Cl)c3)ccc1Oc1cnc(C3=CCOCC3)cc12` [compound 309], less than 100 nM.
On to `Cc1ccc(-c2cnc3c(c2)[C@]2(COC(N)=N2)c2cc(-c4cccnc4F)ccc2O3)cn1` [compound 339], for which the IC50 was less than 100 nM.
`COc1ccc(-c2cnc3c(c2)[C@]2(COC(N)=N2)c2cc(-c4cccnc4F)ccc2O3)cn1` [compound 344]: the IC50 is less than 100 nM.
The same measure, in the same setting: the figure for `NC1=N[C@@]2(CO1)c1cc(-c3ccc(F)nc3)ccc1Oc1cnc(Cl)cc12` [compound 310] is 100 to 1000 nM; for `Cc1cncc(-c2ccc3c(c2)[C@@]2(COC(N)=N2)c2cc(-c4ccnc(C)c4)ncc2O3)c1` [compound 307] it is less than 100 nM.
Same read-out and setting: in the case of `CC(C)(C#Cc1cnc2c(c1)[C@]1(COC(N)=N1)c1cc(-c3cccnc3)ccc1O2)N1CCC1` [compound 320] it was less than 100 nM; in that of `Cc1cncc(-c2ccc3c(c2)[C@@]2(COC(N)=N2)c2cc(-c4cccnc4)ncc2O3)c1` [compound 306], less than 100 nM.
The same measure, in the same setting: the figure for `NC1=N[C@@]2(CO1)c1cc(-c3cncc(Cl)c3)ccc1Oc1cnc(-c3ccncc3)cc12` [compound 302] is less than 100 nM; for `NC1=N[C@@]2(CO1)c1cc(-c3cccc(Cl)c3)ccc1Oc1ncc(-c3ccncc3)cc12` [compound 345] it is less than 100 nM; for `NC1=N[C@@]2(CO1)c1cc(-c3cccc(Cl)c3)ccc1Oc1ncc(C3=CCOCC3)cc12` [compound 322] it is less than 100 nM.
In the case of `COc1ccc2c(c1)[C@@]1(COC(N)=N1)c1cc(N3CCOCC3)cc(F)c1O2` [compound 304], the IC50 fell in the range of 100 to 1000 nM.
`COc1ccc(-c2cnc3c(c2)[C@]2(COC(N)=N2)c2cc(OCC(C)(C)C#N)ccc2O3)cn1` [compound 341]: the IC50 is less than 100 nM.
Still for that read-out and setting: the figure for `NC1=N[C@@]2(CO1)c1cc(-c3c(F)ccnc3F)ccc1Oc1ncc(C3=CCOCC3)cc12` [compound 321] is less than 100 nM; for `CC(C)(C)COc1cnc2c(c1)[C@]1(COC(N)=N1)c1cc(C#CC3(C)COC3)ccc1O2` [compound 323] it is less than 100 nM.
The same measure, in the same setting: in the case of `CC1(C#Cc2cnc3c(c2)[C@]2(COC(N)=N2)c2cc(-c4cccnc4)ccc2O3)COC1` [compound 315] it was less than 100 nM; in that of `NC1=N[C@@]2(CO1)c1cc(-c3ccc(F)nc3)ccc1Oc1cnc(-c3ccnc(F)c3)cc12` [compound 311], less than 100 nM.
The same measure, in the same setting: the figure for `CC1(C#Cc2cnc3c(c2)[C@]2(COC(N)=N2)c2cc(-c4cccc(Cl)c4)ccc2O3)COC1` [compound 314] is less than 100 nM; for `CC(C)(C)C#Cc1cnc2c(c1)[C@]1(COC(N)=N1)c1cc(-c3cncc(C#N)c3)ccc1O2` [compound 317] it is less than 100 nM.
For the molecule `CC(C)(C)C#Cc1cnc2c(c1)[C@]1(COC(N)=N1)c1cc(-c3cccc(C#N)c3)ccc1O2` [compound 318], the IC50 is less than 100 nM.
Take `CC(C)(C#N)COc1ccc2c(c1)[C@@]1(COC(N)=N1)c1cc(-c3ccc(OC(F)(F)F)cc3)cnc1O2` [compound 342]: the IC50 was less than 100 nM.
With `Cc1cncc(-c2ccc3c(c2)[C@@]2(COC(N)=N2)c2cc(C4CCOCC4)ncc2O3)c1` [compound 308], the IC50 is less than 100 nM.
Same read-out and setting: in the case of `NC1=N[C@@]2(CO1)c1cc(-c3cccnc3F)ccc1Oc1cnc(-c3ccc(F)nc3)cc12` [compound 312] it was less than 100 nM; in that of `NC1=N[C@@]2(CO1)c1cc(-c3cncc(Cl)c3)ccc1Oc1cnc(-c3cccnc3)cc12` [compound 303], less than 100 nM.
